Values quoted from earlier work, collected in patent US8697106B2, “Coating composition” (SurModics, Inc., priority 2006, dated 2014).

What was measured:
bacteria = settings: effective systemic concentration
[1] = system-wide (systemic) concentration

Compound: NC[C@H]1O[C@H](O[C@H]2[C@H](O)[C@@H](O[C@H]3O[C@H](CO)[C@@H](O)[C@H](N)[C@H]3O)[C@H](N)C[C@@H]2N)[C@H](N)C[C@@H]1O [tobramycin]
- effective concentration to actively control bacteria (bacteria): ≤ 4 µg/mL
- system-wide toxic concentration [1]: about 400 mcg/ml
